According to US20230293614A1, “COMPOSITIONS AND METHODS OF TREATING UPS-ASSOCIATED DISEASES” (Board of Supervisors of Louisiana State University and …, priority 2020, published 2023):

What was measured:
[1] = MTT cellular viability assay, MM.1S; assay type: cell-based; conditions: human, MM.1S cells, read-out: percentage of viable cells
Procedure: The effect of PMI-5011 and bioactive compounds on the viability of cells was tested using a standard colorimetric MTT assay. The MTT Cell Proliferation Assay Kit was purchased from VWR, Radnor, Pa. MM.1S and OPM2 cells were treated with 10 μg/mL of PMI-5011 and 1, 10, and 30 μg/mL of DMC-1, DMC-2, KOE and davidigenin and plated at a density of 10^6 cells/mL in a 96-well plate with each well containing 250 μL of the sample. The plated cells were then incubated at 37° C. for 16 h. 10 μg/mL for PMI-5011 and a 16-h treatment period was used in this study based on previous findings by Yu et al.^24 Parallel plates were prepared for positive and negative solvent vehicle control with the same volume of DMSO and ethanol as for the treated cells. On the day of the experiment, the 96-well plates were centrifuged at 1000×g at 4° C. for 5 min in a microplate compatible centrifuge. The media was discarded and 50 μL of serum-free media and 50 μL of the MTT reagent were added into each well. For a background control, 50 μL of the MTT reagent was added into a well containing media only (no cells). The plate was incubated at 37° C. for 3 h in the dark. After incubation, 150 μL of the MTT solvent was added into each well. The plate was wrapped in a foil and placed on an orbital shaker for 15 min. Finally, the absorbance was measured at λex=544 nm and λem=590 nm using a Wallac 1420 VICTOR2 multilabel HTS counter fluorometry (Perkin Elmer (Waltham, Mass.). The percentage viable cells was obtained by Eq. 1.
% Viable Cells=S-N/C-N×100 (Eq. 1)
Where, S denotes raw absorbance values from samples, N denotes average absorbance value of the background control and C denotes the highest average absorbance value of positive vehicle control. The obtained percentage cytotoxicity values were then statistically analyzed for their significance. Each data point represents triplicate data points from duplicate experiments. The effect of PMI-5011 and the selected bioactive compounds on C2C12 cell viability has previously been reported.^24

[2] = test system: deubiquitinating enzymes (DUBs); test: DUB activity (Z-LRGG-AMC cleavage) in lysates of treated OPM2 cells; assay type: cell-based; conditions: for Vmax / effect on DUB activity vs DMSO control / Km / n (Hill coefficient): 16 h
Procedure: OPM2 cells were maintained in RPMI 1640 media supplemented with 12% FBS, 21.8 mM glucose, 8.6 mM HEPES (pH 7.4) and 1.0 mM sodium pyruvate. MM.1S cell line were maintained in RPMI 1640 media supplemented with 10% FBS. The cells were all cultured in T175 flasks (VWR, Radnor, Pa.). All media components were from Corning, Atlanta, Ga. unless otherwise noted. To test the effect of the ethanolic extract and bioactive compounds on DUB activity, cells were exposed to a 16-h pretreatment with 10 μg/mL of PMI-5011 and 1, 10, 30 μg/mL concentrations of DMC-1, DMC-2, KOE, and davidigenin before lysing the cells for experimentation. All compounds were reconstituted in DMSO to obtain stock concentrations, which was further diluted in culture media to obtain the desired experimental concentrations. For vehicle control, a subpopulation of cells was treated with pure DMSO diluted in a similar manner for the same duration. Upon treatment, cell lysates (both OPM2 and MM.1S) were generated by harvesting 1×10^6 cells/mL, followed by washing 2× and pelleting in phosphate buffered saline (PBS; 137 mM NaCl, 10 mM Na2HPO4, […], and 1.75 mM KH2PO4 at pH 7.4). The cell pellet was re-suspended in an approximately equivalent volume of M-PER to the volume of the cell pellet (1000-2000 μL) then vortexed for 10 min at room temperature. Following this, the mixture was centrifuged at 14,000×g for 15 min at 4° C. and the supernatant transferred to a centrifuge tube and stored on ice until use. Total protein concentration was determined using a NanoDrop 2000c (Thermo Scientific, Madison, Wis.).
The commercial DUB reporter, Z-LRGG-AMC (substrate) (SEQ ID NO: 1) was reconstituted in DMSO to obtain a final stock concentration of 1.44 mM. This stock reporter was diluted as needed in assay buffer (50 mM HEPES, pH 7.4, 150 mM NaCl, 2 mM DTT, and 0.02% Tween-20) supplemented with 4 mg/mL cell lysates (source of DUBs) to reach the desired reporter concentration with a final volume of 100 μL in a 96-well plate. OPM2 and MM.1S cell lysates from different treatments (10 μg/mL of PMI-5011; 1, 10, and 30 μg/mL of DMC-1, DMC-2, KOE, davidigenin and control vehicle DMSO) and C2C12 cell lysates were used to interrogate the effect of the ethanolic extract and selected bioactive compounds on DUB activity. Reporter only and lysates only (noise/background) samples were included in the 96-well plate to confirm that the rates observed were due to DUB-mediated hydrolysis initiated by the cell lysates. The 96-well plate was maintained at a temperature of 30° C. in the dark for the duration of the experiment. The fluorescence signals emitted as a result of DUB-mediated cleavage of AMC (λex=355 nm and λem=460 nm) were quantified using a Wallac 1420 VICTOR2 multilabel HTS counter fluorometry (Perkin Elmer (Waltham, Mass.). Readings were collected every 30 min for 6 h. The normalized signals were obtained by comparing the treatment with noise and background fluorescence values which were then statistically analyzed for their significance. Each data point represents triplicate data points from duplicate experiments. A calibration curve was generated for known concentrations of AMC to correlate the fluorescence signal (AU) to concentration (μM). The approximate concentration of free fluorophore was used to calculate reaction rates (μM/min) for each substrate concentration using linear regression analysis.
All data visualization, interpretation and curve-fittings were performed using Origin Pro (OriginLab, Northampton, MA) while statistical analyses of experimental data were carried out using SAS 9.4 (SAS Solutions). The analyses of enzyme-substrate reactions in all cell lysates started with scatter plotting the fluorometry signals (p,M) measured for each substrate concentration against time (min). Fluorescence signals measured for each substrate concentration remained stable during the first 30 min, indicating there was a 30-minute lag period before reaction initiation. […]

Question: What does the source list for `COc1ccc(CCC(=O)c2ccc(O)cc2O)cc1` [DMC-2, 1-(2,4-dihydroxyphenyl)-3-(4-methoxyphenyl)propan-1-one]?
Answer: viability at 16 h, 1 μg/mL ([1]; 1 μg/mL): ~100%; viability at 16 h, 30 μg/mL ([1]; 30 μg/mL): ~65%; Vmax ([2]; OPM2, 1 μg/mL): 21.38 ± 2.68 µM/min; effect on DUB activity vs DMSO control ([2]; OPM2, 1 μg/mL): significantly enhanced; Vmax ([2]; OPM2, 10 μg/mL): 22.71 ± 1.64 µM/min; effect on DUB activity vs DMSO control ([2]; OPM2, 10 μg/mL): significantly enhanced; Vmax ([2]; OPM2, 30 μg/mL): 184.79 ± 22.09 µM/min; effect on DUB activity vs DMSO control ([2]; OPM2, 30 μg/mL): significantly enhanced; effect of increasing concentration on DUB activity (normalized Vmax) ([2]; OPM2, 1, 10, 30 μg/mL, regression fit): exponential increase; Km ([2]; Table 2, OPM-2, 1 μg/mL): 44.8 µM; n (Hill coefficient) ([2]; Table 2, OPM-2, 1 μg/mL): 1.47; Vmax ([2]; Table 2, OPM-2, 1 μg/mL, in µM/min): 21.38; Km ([2]; Table 2, OPM-2, 10 μg/mL): 35.5 µM; n (Hill coefficient) ([2]; Table 2, OPM-2, 10 μg/mL): 1.59; Vmax ([2]; Table 2, OPM-2, 10 μg/mL, in µM/min): 22.71; Km ([2]; Table 2, OPM-2, 30 μg/mL): 48.2 µM; n (Hill coefficient) ([2]; Table 2, OPM-2, 30 μg/mL): 1.49; Vmax ([2]; Table 2, OPM-2, 30 μg/mL, in µM/min): 184.79
